Measured values published in patent publication US8247211B2, “Glycopeptide antibiotics” (American Cyanamid Company, priority 2001, dated 2012).

What was measured:
Experiment in all cases: In vitro antibacterial evaluation: minimum inhibitory concentration (MIC), broth dilution method
Format in all cases: cell-based
Enterococcus sp. = system: Enterococcus sp.
In short: (§1)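 Following NCCLS approved standard M7-A2, compounds are serially diluted from 64 to 0.06 μg/mL in Muller-Hinton II […] and inoculated at 5×10^5 CFU/mL; the MIC is the minimum concentration at which growth is inhibited.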

Staphylococcus sp. = conditions: 18 hours at 35° C.
In short: as §1

Escherichia coli [1] = system: Escherichia coli
In short: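 Broth dilution per NCCLS M7-A2 in Muller-Hinton II […], inoculum 5×10^5 CFU/mL, antibiotic tested over 64-0.06 μg/mL. MIC is taken as the lowest concentration that inhibits growth. Panel includes recent clinical isolates resistant to methicillin, penicillin and/or vancomycin.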

Streptococcus sp. = conditions: 18 hours at 35° C.
In short: as §1

Escherichia coli [2] = system: Escherichia coli; remark: listed apart in the source
[3] = Enterococcus faecalis (ATCC 29212)
[4] = Enterococcus faecalis (GC 4553)
[5] = Enterococcus faecalis (GC 4554)
[6] = Staphylococcus aureus (ATCC 29213)
[7] = Staphylococcus aureus (GC 1131)
[8] = Staphylococcus aureus (GC 4541)
[9] = Staphylococcus aureus (GC 4542)
[10] = Staphylococcus aureus (GC 4544)
[11] = Staphylococcus aureus (GC 4545)

CC(C)CC(=O)OC1C(OC2C(CO)OC(Oc3ccc(CC4NC(=O)C(C(C)c5cccs5)NC(=O)CNC(=O)C(CO)NC(=O)C(C(O)C5CNC(=N)N5C5OC(CO)C(O)C(O)C5O)NC(=O)C(C(O)C5CNC(=N)N5)NC4=O)cc3)C(O)C2O)OC(CO)C(O)C1O (stereo not drawn) [Example 265a, Cyclo[3-(2-thienyl)-2-aminobutanoyl-O-[4-O-[2-O-(3-methylbutanoyl)hexopyranosyl]hexopyranosyl]tyrosyl-3-(2-iminoimidazolidin-4-yl)seryl-3-(3-hexopyranosyl-2-iminoimidazolidin-4-yl)serylserylglycyl]]
16 µg/mL: MIC Staphylococcus aureus (ATCC 29213) (Staphylococcus sp.; [6]) | MIC Staphylococcus aureus (ATCC 29213) (Staphylococcus sp.; Staphylococcus aureus (ATCC 29213), broth dilution) | MIC Staphylococcus aureus (GC 4541) (Staphylococcus sp.; [8]) | MIC Staphylococcus aureus (GC 4541) (Staphylococcus sp.; Staphylococcus aureus (GC 4541), broth dilution) | MIC Staphylococcus aureus (GC 4542) (Staphylococcus sp.; [9]) | MIC Staphylococcus aureus (GC 4542) (Staphylococcus sp.; Staphylococcus aureus (GC 4542), broth dilution) | MIC Staphylococcus aureus (GC 4545) (Staphylococcus sp.; [11]) | MIC Staphylococcus aureus (GC 4545) (Staphylococcus sp.; Staphylococcus aureus (GC 4545), broth dilution)
32 µg/mL: MIC Staphylococcus aureus (GC 1131) (Staphylococcus sp.; [7]) | MIC Staphylococcus aureus (GC 1131) (Staphylococcus sp.; Staphylococcus aureus (GC 1131), broth dilution)
>64 µg/mL: MIC Enterococcus faecalis (GC 4553) (Enterococcus sp.; [4]) | MIC Enterococcus faecalis (GC 4554) (Enterococcus sp.; [5]) | MIC Enterococcus faecium (GC 2243) (Enterococcus sp.; Enterococcus faecium (GC 2243)) | MIC Escherichia coli (GC 4559) (Escherichia coli [1]) | MIC Escherichia coli (ATCC 25922) (Escherichia coli [2])
4 µg/mL: MIC Coagulase Negative Staphylococcus (GC 4549) (Staphylococcus sp.) | MIC Coagulase Negative Staphylococcus (GC 4549) (Staphylococcus sp.; broth dilution) | MIC Escherichia coli (GC 4560) (Escherichia coli [1]) | MIC Streptococcus pyogenes (GC 4563) (Streptococcus sp.; broth dilution, strain GC 4563)
8 µg/mL: MIC Enterococcus faecium (GC 4557) (Enterococcus sp.; Enterococcus faecium (GC 4557)) | MIC Coagulase Negative Staphylococcus (GC 4547) (Staphylococcus sp.) | MIC Coagulase Negative Staphylococcus (GC 4547) (Staphylococcus sp.; broth dilution) | MIC Coagulase Negative Staphylococcus (GC 4548) (Staphylococcus sp.) | MIC Coagulase Negative Staphylococcus (GC 4548) (Staphylococcus sp.; broth dilution) | MIC Coagulase Negative Staphylococcus (GC 4551) (Staphylococcus sp.) | MIC Coagulase Negative Staphylococcus (GC 4551) (Staphylococcus sp.; broth dilution) | MIC Staphylococcus aureus (GC 4544) (Staphylococcus sp.; [10]) | MIC Staphylococcus aureus (GC 4544) (Staphylococcus sp.; Staphylococcus aureus (GC 4544), broth dilution) | MIC Staphylococcus aureus-SMITH (GC 4543) (Staphylococcus sp.) | MIC Staphylococcus aureus-SMITH (GC 4543) (Staphylococcus sp.; broth dilution) | MIC Staphylococcus haemolyticus (GC 4546) (Staphylococcus sp.) | MIC Staphylococcus haemolyticus (GC 4546) (Staphylococcus sp.; broth dilution)
64 µg/mL: MIC Enterococcus avium (GC 4558) (Enterococcus sp.; Enterococcus avium (GC 4558)) | MIC Enterococcus faecalis (ATCC 29212) (Enterococcus sp.; [3]) | MIC Enterococcus faecium (GC 4556) (Enterococcus sp.; Enterococcus faecium (GC 4556)) | MIC Streptococcus pyogenes (ID-3187) (Streptococcus sp.; broth dilution, strain ID-3187)

α-O-[(Benzylamino)carbonyl]-cyclo[glycyl-β-methylphenylalanyl-O-(4-O-hexopyranosylhexopyranosyl)tyrosyl-3-(2-iminoimidazolidin-4-yl)seryl-3-(3-hexopyranosyl-2-iminoimidazolidin-4-yl)serylseryl] [Example 257a]
8 µg/mL: MIC Enterococcus faecium (GC 4557) (Enterococcus sp.; Enterococcus faecium (GC 4557)) | MIC Enterococcus faecium (GC 4557) (Enterococcus sp.; broth dilution, 18 hours at 35° C., strain GC 4557) | MIC Coagulase Negative Staphylococcus (GC 4547) (Staphylococcus sp.) | MIC Coagulase Negative Staphylococcus (GC 4548) (Staphylococcus sp.) | MIC Coagulase Negative Staphylococcus (GC 4549) (Staphylococcus sp.) | MIC Staphylococcus haemolyticus (GC 4546) (Staphylococcus sp.) | MIC Streptococcus agalactiae (GC 4564) (Streptococcus sp.; Streptococcus agalactiae (GC 4564)) | MIC Streptococcus agalactiae (GC 4564) (Streptococcus sp.; broth dilution, strain GC 4564)
32 µg/mL: MIC Coagulase Negative Staphylococcus (GC 4551) (Staphylococcus sp.)
4 µg/mL: MIC Coagulase Negative Staphylococcus (GC 6257) (Staphylococcus sp.; Coagulase Negative Staphylococcus (GC 6257)) | MIC Streptococcus pneumoniae (GC 4565) (Streptococcus sp.; Streptococcus pneumoniae (GC 4565)) | MIC Streptococcus pneumoniae (GC 4565) (Streptococcus sp.; broth dilution, strain GC 4565)
>32 µg/mL: MIC Enterococcus faecium (GC 2243) (Enterococcus sp.; Enterococcus faecium (GC 2243)) | MIC Enterococcus faecium (GC 4556) (Enterococcus sp.; Enterococcus faecium (GC 4556)) | MIC Enterococcus faecium (GC 2243) (Enterococcus sp.; broth dilution, 18 hours at 35° C., strain GC 2243) | MIC Enterococcus faecium (GC 4556) (Enterococcus sp.; broth dilution, 18 hours at 35° C., strain GC 4556)
0.12 µg/mL: MIC Streptococcus pyogenes (GC 4563) (Streptococcus sp.; Streptococcus pyogenes (GC 4563)) | MIC Streptococcus pyogenes (GC 4563) (Streptococcus sp.; broth dilution, strain GC 4563)
>0.5 µg/mL: MIC Enterococcus avium (GC 4558) (Enterococcus sp.; Enterococcus avium (GC 4558)) | MIC Enterococcus faecalis (ATCC 29212) (Enterococcus sp.; [3]) | MIC Enterococcus faecalis (GC 2242) (Enterococcus sp.; Enterococcus faecalis (GC 2242), 18 hours at 35° C.) | MIC Enterococcus faecalis (GC 3059) (Enterococcus sp.; Enterococcus faecalis (GC 3059), 18 hours at 35° C.) | MIC Enterococcus faecalis (GC 4552) (Enterococcus sp.; Enterococcus faecalis (GC 4552), 18 hours at 35° C.) | MIC Enterococcus faecalis (GC 4553) (Enterococcus sp.; [4]) | MIC Enterococcus faecalis (GC 4554) (Enterococcus sp.; [5]) | MIC Enterococcus faecalis (GC 6189) (Enterococcus sp.; Enterococcus faecalis (GC 6189)) | MIC Enterococcus faecalis (ATCC 29212) (Enterococcus sp.; broth dilution, 18 hours at 35° C., strain ATCC 29212) | MIC Enterococcus faecalis (GC 2242) (Enterococcus sp.; broth dilution, 18 hours at 35° C., strain GC 2242) | MIC Enterococcus faecalis (GC 3059) (Enterococcus sp.; broth dilution, 18 hours at 35° C., strain GC 3059) | MIC Enterococcus faecalis (GC 4552) (Enterococcus sp.; broth dilution, 18 hours at 35° C., strain GC 4552) | MIC Enterococcus faecalis (GC 4553) (Enterococcus sp.; broth dilution, 18 hours at 35° C., strain GC 4553) | MIC Enterococcus faecalis (GC 4554) (Enterococcus sp.; broth dilution, 18 hours at 35° C., strain GC 4554) | MIC Enterococcus avium (GC 4558) (Enterococcus sp.; broth dilution, 18 hours at 35° C., strain GC 4558) | MIC Enterococcus faecalis (GC 6189) (Enterococcus sp.; broth dilution, 18 hours at 35° C., strain GC 6189) | MIC Escherichia coli (GC 4559) (Escherichia coli [1]) | MIC Escherichia coli (ATCC 25922) (Escherichia coli [2])
1 µg/mL: MIC Streptococcus pneumoniae (ATCC 6301) (Streptococcus sp.; Streptococcus pneumoniae (ATCC 6301)) | MIC Streptococcus pneumoniae (GC 1894) (Streptococcus sp.; Streptococcus pneumoniae (GC 1894)) | MIC Streptococcus pneumoniae (ATCC 6301) (Streptococcus sp.; broth dilution, strain ATCC 6301) | MIC Streptococcus pneumoniae (GC 1894) (Streptococcus sp.; broth dilution, strain GC 1894)
0.5 µg/mL: MIC Enterococcus faecalis (GC 2691) (Enterococcus sp.; Enterococcus faecalis (GC 2691), 18 hours at 35° C.) | MIC Enterococcus faecalis (GC 2691) (Enterococcus sp.; broth dilution, 18 hours at 35° C., strain GC 2691) | MIC Staphylococcus aureus (ATCC 29213) (Staphylococcus sp.; [6]) | MIC Staphylococcus aureus (GC 1131) (Staphylococcus sp.; [7]) | MIC Staphylococcus aureus (GC 3051) (Staphylococcus sp.; Staphylococcus aureus (GC 3051)) | MIC Staphylococcus aureus (GC 3053) (Staphylococcus sp.; Staphylococcus aureus (GC 3053)) | MIC Staphylococcus aureus (GC 4541) (Staphylococcus sp.; [8]) | MIC Staphylococcus aureus (GC 4542) (Staphylococcus sp.; [9]) | MIC Staphylococcus aureus (GC 4544) (Staphylococcus sp.; [10]) | MIC Staphylococcus aureus (GC 4545) (Staphylococcus sp.; [11]) | MIC Staphylococcus aureus-SMITH (GC 4543) (Staphylococcus sp.) | MIC Staphylococcus aureus (ATCC 29213) (Staphylococcus sp.; broth dilution, strain ATCC 29213) | MIC Staphylococcus aureus (GC 1131) (Staphylococcus sp.; broth dilution, strain GC 1131) | MIC Staphylococcus aureus (GC 3051) (Staphylococcus sp.; broth dilution, strain GC 3051) | MIC Staphylococcus aureus (GC 3053) (Staphylococcus sp.; broth dilution, strain GC 3053) | MIC Staphylococcus aureus (GC 4541) (Staphylococcus sp.; broth dilution, strain GC 4541) | MIC Staphylococcus aureus (GC 4542) (Staphylococcus sp.; broth dilution, strain GC 4542) | MIC Staphylococcus aureus (GC 4544) (Staphylococcus sp.; broth dilution, strain GC 4544) | MIC Staphylococcus aureus (GC 4545) (Staphylococcus sp.; broth dilution, strain GC 4545) | MIC Escherichia coli (GC 4560) (Escherichia coli [1])
